Reference: US20120122181A1, “METHOD FOR DETERMINING ANTAGONIST ACTIVITY TO A CYTOKININ RECEPTOR” (SUMITOMO CHEMICAL COMPANY, LIMITED, priority 2001, published 2012)
Blank lines part the entries; values can stand above or below the molecule they belong to.

Columns and labels:
[1] = target: T1, cytokinin receptor AHK2 (transformed cell TM182-AHK2) (Arabidopsis thaliana, UniProt Q9C5U2); conditions: DOLU+Gul agar, concentrations 1 nM to 100 μM, 30° C., 30 hours
T1 sequence (Q9C5U2 1-1176): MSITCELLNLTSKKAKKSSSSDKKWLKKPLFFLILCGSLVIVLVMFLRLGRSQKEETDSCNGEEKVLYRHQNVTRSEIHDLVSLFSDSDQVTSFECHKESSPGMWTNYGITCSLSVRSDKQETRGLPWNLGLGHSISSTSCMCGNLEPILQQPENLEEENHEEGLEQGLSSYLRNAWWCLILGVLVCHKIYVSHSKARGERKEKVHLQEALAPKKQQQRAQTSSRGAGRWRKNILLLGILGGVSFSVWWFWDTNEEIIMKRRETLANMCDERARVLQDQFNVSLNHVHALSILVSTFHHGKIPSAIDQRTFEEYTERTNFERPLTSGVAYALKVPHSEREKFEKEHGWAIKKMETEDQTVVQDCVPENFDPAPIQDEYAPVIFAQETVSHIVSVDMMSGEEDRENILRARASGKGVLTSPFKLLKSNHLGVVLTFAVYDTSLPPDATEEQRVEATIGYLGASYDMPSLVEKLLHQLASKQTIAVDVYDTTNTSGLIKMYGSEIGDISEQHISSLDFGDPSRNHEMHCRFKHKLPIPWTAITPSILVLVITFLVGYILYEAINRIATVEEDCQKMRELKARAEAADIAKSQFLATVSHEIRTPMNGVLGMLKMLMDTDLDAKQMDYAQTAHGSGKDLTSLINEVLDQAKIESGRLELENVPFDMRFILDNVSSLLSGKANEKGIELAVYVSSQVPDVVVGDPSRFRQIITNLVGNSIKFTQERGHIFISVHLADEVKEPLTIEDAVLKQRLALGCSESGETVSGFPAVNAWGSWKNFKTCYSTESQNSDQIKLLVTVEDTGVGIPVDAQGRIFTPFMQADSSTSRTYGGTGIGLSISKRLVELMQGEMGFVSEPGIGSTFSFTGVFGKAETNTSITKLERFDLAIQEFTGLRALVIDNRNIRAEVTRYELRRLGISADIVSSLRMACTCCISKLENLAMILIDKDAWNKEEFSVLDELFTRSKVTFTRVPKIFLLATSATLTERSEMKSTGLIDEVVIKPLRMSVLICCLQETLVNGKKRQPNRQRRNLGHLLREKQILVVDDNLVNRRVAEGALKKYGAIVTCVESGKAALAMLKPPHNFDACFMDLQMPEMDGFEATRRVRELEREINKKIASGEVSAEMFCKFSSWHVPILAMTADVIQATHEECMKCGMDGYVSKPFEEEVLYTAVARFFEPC
Procedure: (§1) After incubation, the growth state of the transformed cells was observed and photographed by a digital camera.
(§2) The lowest supply concentrations of trans-zeatin and cis-zeatin in which the respective transformed cells could be grown were shown in Table 1.

[2] = target: T1, cytokinin receptor AHK2 (transformed cell TM182-AHK2); conditions: DOLU+Gul agar containing 10 μM trans-zeatin, 30° C., 30 hours; compared with media containing no trans-zeatin
Procedure: (§3) Transformation of TM182 (S1n1 Δ), S1n1 genetically detected strain, [Maeda T et al. Nature: 369 242-245 (1994)] was carried out using the obtained expression plasmid p415CYC-CRE1 (the example 5), p415CYC-AHK2 (the example 11), p415CYC-AHK2Δ (the example 11) and p415CYC-AHK3 (the example 8). The transformation was carried out by employing Polyethylene glycol/lithium acetate (PEG/LiAc)-mediated transformation method according to the description of VII. Library Transformation & Screening Protocols disclosed in […] Two-Hybrid System 3 User Manual p.
as §1

[3] = target: T2, cytokinin receptor AHK3 (transformed cell TM182-AHK3) (Arabidopsis thaliana, UniProt Q9C5U1); conditions: DOLU+Gul agar containing 10 μM trans-zeatin, 30° C., 30 hours; compared with media containing no trans-zeatin
T2 sequence (Q9C5U1 1-1036): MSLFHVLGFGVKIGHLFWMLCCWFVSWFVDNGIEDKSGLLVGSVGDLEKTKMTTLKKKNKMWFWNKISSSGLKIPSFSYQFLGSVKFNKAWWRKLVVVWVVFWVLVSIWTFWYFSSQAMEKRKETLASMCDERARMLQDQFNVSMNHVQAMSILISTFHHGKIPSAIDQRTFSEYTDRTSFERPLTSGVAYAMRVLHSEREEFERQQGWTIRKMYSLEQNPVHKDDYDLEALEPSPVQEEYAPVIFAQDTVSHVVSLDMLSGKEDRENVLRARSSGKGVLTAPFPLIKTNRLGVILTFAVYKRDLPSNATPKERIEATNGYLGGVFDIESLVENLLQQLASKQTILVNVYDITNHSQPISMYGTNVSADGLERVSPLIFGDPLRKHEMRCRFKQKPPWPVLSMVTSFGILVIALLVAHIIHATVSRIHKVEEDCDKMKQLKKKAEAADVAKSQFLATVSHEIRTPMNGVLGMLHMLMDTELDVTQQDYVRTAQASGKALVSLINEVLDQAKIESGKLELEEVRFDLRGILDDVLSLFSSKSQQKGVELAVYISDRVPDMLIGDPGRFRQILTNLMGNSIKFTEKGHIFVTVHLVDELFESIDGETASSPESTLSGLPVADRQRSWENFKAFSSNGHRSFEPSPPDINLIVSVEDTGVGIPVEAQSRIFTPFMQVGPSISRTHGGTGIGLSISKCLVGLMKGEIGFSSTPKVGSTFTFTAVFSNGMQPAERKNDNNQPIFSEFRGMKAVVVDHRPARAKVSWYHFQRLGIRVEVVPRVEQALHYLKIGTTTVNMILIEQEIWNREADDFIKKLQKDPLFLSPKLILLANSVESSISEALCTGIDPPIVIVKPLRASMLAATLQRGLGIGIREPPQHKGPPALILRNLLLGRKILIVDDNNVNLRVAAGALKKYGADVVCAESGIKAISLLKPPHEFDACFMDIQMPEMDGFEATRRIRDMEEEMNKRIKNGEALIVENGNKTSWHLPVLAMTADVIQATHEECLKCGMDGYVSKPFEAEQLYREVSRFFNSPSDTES
Procedure: as §3, §1

[4] = target: T3, cytokinin receptor CRE1 (transformed cell TM182-CRE1) (Arabidopsis thaliana, UniProt Q9C5U0, S567G/T1018A); conditions: DOLU+Gul agar containing 10 μM trans-zeatin, 30° C., 30 hours; compared with media containing no trans-zeatin
T3 sequence (Q9C5U0 24-1080 S567G/T1018A): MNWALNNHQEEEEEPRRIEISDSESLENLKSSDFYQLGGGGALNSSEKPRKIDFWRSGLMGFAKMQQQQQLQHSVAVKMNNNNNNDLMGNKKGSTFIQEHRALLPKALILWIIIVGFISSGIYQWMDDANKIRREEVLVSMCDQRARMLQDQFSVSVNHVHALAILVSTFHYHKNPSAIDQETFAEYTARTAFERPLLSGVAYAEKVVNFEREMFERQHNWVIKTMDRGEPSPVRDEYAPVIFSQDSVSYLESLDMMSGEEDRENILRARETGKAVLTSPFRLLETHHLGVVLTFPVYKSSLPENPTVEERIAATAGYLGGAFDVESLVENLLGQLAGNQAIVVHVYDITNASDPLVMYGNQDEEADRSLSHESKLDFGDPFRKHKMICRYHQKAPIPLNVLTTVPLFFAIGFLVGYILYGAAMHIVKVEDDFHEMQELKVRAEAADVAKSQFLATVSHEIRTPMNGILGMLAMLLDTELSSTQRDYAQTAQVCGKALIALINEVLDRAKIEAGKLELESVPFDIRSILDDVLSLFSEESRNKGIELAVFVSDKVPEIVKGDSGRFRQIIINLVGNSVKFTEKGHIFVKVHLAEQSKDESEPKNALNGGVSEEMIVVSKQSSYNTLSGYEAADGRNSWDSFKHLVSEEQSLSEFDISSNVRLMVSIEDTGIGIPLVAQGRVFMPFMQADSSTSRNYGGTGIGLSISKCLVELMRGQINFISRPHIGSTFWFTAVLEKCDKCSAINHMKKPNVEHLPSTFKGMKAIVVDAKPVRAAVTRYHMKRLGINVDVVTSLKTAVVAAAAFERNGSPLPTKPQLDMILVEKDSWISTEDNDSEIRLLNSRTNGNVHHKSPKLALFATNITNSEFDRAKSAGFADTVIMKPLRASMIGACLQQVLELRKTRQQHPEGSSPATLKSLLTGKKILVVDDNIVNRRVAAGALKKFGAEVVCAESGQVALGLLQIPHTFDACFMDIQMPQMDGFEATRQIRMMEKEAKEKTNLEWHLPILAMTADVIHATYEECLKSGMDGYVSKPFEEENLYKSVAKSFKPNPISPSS
Procedure: as §3, §1

[5] = target: T4, cytokinin receptor AHK2 Δ (transformed cell TM182-AHK2 Δ) (Arabidopsis thaliana, UniProt Q9C5U2); conditions: DOLU+Gul agar containing 10 μM trans-zeatin, 30° C., 30 hours; compared with media containing no trans-zeatin
T4 sequence (Q9C5U2 196-1176): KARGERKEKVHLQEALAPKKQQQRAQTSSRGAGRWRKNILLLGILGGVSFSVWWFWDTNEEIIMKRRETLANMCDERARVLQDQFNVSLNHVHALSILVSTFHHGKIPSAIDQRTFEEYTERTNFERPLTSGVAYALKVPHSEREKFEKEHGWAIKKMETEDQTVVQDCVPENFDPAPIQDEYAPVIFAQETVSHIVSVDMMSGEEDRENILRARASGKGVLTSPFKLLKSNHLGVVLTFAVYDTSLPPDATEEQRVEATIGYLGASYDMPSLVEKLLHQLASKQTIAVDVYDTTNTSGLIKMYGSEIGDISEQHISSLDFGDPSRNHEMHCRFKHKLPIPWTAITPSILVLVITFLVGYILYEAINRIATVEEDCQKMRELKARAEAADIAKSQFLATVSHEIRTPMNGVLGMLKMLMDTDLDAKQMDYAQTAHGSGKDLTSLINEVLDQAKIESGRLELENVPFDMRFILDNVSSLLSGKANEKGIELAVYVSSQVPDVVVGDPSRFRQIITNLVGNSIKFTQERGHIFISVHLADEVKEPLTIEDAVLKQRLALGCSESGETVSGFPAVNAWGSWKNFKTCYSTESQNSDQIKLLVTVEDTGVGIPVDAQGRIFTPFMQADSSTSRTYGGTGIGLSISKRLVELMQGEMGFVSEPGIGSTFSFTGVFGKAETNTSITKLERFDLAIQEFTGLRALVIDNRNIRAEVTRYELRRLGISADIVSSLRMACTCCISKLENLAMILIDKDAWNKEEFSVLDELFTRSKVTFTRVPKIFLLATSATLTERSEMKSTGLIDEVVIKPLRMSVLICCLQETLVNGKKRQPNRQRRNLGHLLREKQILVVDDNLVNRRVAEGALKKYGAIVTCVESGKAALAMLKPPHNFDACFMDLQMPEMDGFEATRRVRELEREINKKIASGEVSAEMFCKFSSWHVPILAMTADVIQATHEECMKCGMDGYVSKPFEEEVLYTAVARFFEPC
Procedure: as §3, §1

[6] = target: T4, cytokinin receptor AHK2 Δ (transformed cell TM182-AHK2 Δ); assay: Searching agonist-activity to cytokinin receptor (Part 1), optical density of liquid culture; assay type: cell-based; design: one added initiator methionine (ATG added 5' of codon 196) (N); expressed in transfected cells; host or cells: Saccharomyces cerevisiae TM182 (sln1 deletion), plasmid p415CYC-AHK2 Δ; conditions: examinee substance 100 μM final concentration, DOLU+Gul medium, 30° C., 24 hours; DMSO blank 0
Procedure: The transformed cells TM182-CRE1, TM182-AHK2, TM182-AHK2 Δ and TM182-AHK3 produced in the example 12 were inoculated in 200 ml of DOLU+Gal culture media and pre-cultured at 30° C. for 36 hours. The pre-cultured solutions were diluted with DOLU+Gul media as to become 0.100 as the optical density (0D600) and further the resultants were diluted with DOLU+Gul media at a dilution rate of 1/200 to obtain diluted pre-cultured solutions.
An assay plate was prepared by filling respective wells of a 96-well plate with 20 μl of solutions which were prepared by diluting DMSO solution (10 mM) of each examinee substance with DOLU+Gul medium at a dilution rate of 1/100, said solutions containing each examinee substance to be 100 μM at the final concentration. […]
The diluted pre-cultured solutions were added in 200 μl each into the respective wells of both assay plates and cultured at 30° C. for 24 hours and then the optical density (0D620) of each well was measured by a plate reader. The agonist-activity of the examinee substances to the cytokinin receptor was detected by comparing the optical density measured in the testing sections to which the examinee substances were added with the optical density measured in the blank sections.

[7] = target: T3, cytokinin receptor CRE1 (transformed cell TM182-CRE1); conditions: DOLU+Gul agar, concentrations 1 nM to 100 μM, 30° C., 30 hours
Procedure: as §1, §2

[8] = target: T4, cytokinin receptor AHK2 Δ (transformed cell TM182-AHK2 Δ); conditions: DOLU+Gul agar, concentrations 1 nM to 100 μM, 30° C., 30 hours
Procedure: as §1, §2

Structure (SMILES): C/C(=C\CNc1ncnc2nc[nH]c12)CO [trans-zeatin]
- lowest supply concentration in which the transformed cells could be grown, TM182-AHK2 [1]: 1 µM
- growth state of transformed cells TM182-AHK2 [2]: high growth
- growth state of transformed cells TM182-AHK3 [3]: high growth
- growth state of transformed cells TM182-CRE1 [4]: high growth
- growth state of transformed cells TM182-AHK2 Δ [5]: high growth

Structure (SMILES): CC1=CC(=O)CC(C)(C)[C@@]1(O)/C=C/C(C)=C\C(=O)O [Compound A, Abscisic acid]
- optical density (OD620) of the culture solution, TM182-AHK2 Δ [6]: 0

- lowest supply concentration in which the transformed cells could be grown, TM182-CRE1 [7]: no growth
- lowest supply concentration in which the transformed cells could be grown, TM182-AHK2 A [8]: 1 µM
Structure (SMILES): C/C(=C/CNc1ncnc2nc[nH]c12)CO [cis-zeatin]
